Experimental data reported in patent US8350027B2, “Dual-acting pyrazole antihypertensive agents” (Theravance, Inc., priority 2009, dated 2013).

Assays:
human AT1 receptor = molecular target: T1, human AT1 receptor (Homo sapiens, UniProt P30556); assay: AT1 radioligand binding assay (displacement of [Eu]AngII); conditions: membranes of CHO-K1 cells expressing cloned human AT1 receptor; values given as lower bounds; read-out: AT1 pKi (converted)
T1 construct: expressed in transfected cells; host or cells: CHO-K1
T1 sequence (P30556 1-359): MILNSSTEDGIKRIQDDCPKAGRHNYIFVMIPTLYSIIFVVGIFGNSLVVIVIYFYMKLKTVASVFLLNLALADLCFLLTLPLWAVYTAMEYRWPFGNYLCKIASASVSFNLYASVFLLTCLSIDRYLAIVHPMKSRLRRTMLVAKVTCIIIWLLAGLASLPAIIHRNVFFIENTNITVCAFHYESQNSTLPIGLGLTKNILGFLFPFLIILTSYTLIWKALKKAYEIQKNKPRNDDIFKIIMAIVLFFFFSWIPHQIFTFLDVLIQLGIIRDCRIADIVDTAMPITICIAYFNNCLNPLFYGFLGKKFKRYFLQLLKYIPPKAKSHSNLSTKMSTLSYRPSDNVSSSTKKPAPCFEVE
Outline: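 Membranes from CHO-K1 cells stably expressing cloned human AT1, 0.2 μg protein, in 50 mM Tris/HCl pH 7.5, 5 mM MgCl2, 0.025% BSA. Compounds displaced [Eu]AngII over 120 min in the dark at room temperature or 37° C; filter-bound TRF read. Nonspecific binding with 10 μM angiotensin II; IC50 converted to Ki via Cheng-Prusoff, reported as pKi.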

NEP enzyme = molecular target: T2, NEP enzyme (Homo sapiens, UniProt P08473); assay: NEP enzyme inhibition assay (fluorogenic peptide substrate); type: biochemical; conditions: values given as lower bounds; * = prodrugs, may not exhibit NEP activity in an in vitro assay; read-out: NEP pIC50 (converted)
T2 construct: purchased R&D Systems, Minneapolis, Minn; 1182-ZN
Outline: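 Recombinant human NEP was run with Mca-BK2 (10 μM) at room temperature in Tris buffer with 1 μM Zn. Compounds (10 μM–20 pM, 12 points) were pre-equilibrated 10 min, then reacted 20 min and acid-stopped. Fluorescence ex 320/em 405 nm, one-site competition fit gives pIC50. Thiol compounds may be pre-treated with 400 μM TCEP.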

T2 sequence (P08473 52-750 limits assumed): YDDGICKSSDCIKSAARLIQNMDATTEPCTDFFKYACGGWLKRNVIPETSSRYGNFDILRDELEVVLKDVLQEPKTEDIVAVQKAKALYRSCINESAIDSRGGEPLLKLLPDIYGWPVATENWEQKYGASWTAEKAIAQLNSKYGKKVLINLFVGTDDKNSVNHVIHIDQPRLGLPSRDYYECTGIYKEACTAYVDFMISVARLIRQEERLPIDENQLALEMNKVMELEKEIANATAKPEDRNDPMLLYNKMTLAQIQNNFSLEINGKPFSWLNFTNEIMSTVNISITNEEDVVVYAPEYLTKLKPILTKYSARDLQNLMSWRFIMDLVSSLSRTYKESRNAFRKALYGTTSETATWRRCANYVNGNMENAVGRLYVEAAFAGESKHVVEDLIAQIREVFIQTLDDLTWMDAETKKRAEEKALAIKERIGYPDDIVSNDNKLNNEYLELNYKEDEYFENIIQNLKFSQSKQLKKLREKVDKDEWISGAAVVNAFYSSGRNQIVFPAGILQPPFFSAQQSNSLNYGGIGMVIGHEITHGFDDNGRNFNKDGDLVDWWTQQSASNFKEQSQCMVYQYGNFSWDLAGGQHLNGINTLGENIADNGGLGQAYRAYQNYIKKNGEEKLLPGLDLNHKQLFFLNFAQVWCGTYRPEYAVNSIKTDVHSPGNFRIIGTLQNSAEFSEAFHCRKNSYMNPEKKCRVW

| Compound | Ki (human AT1 receptor) [nM] | IC50 (NEP enzyme) [nM] |
| --- | --- | --- |
| CCCc1cc(C(=O)N[C@H](Cc2ccccc2)CN(O)C=O)nn1Cc1ccc(-c2ccccc2-c2nnn[nH]2)cc1 [Example 3-14, 5-Propyl-1-[2′-(1H-tetrazol-5-yl)-biphenyl-4-ylmethyl]-1H-pyrazole-3-carboxylic acid [(R)-1-benzyl-2-(formylhydroxyamino)ethyl]amide] | ≤ 10 | ≤ 100 |
| CCOc1cc(C(=O)N[C@@H](CS)Cc2ccccc2)nn1Cc1ccc(-c2ccccc2S(=O)(=O)NC(C)=O)cc1 [Example 6-2, 1-(2′-Acetylsulfamoyl-biphenyl-4-ylmethyl)-5-ethoxy-1H-pyrazole-3-carboxylic acid ((R)-1-benzyl-2-mercaptoethyl)amide] | ≤ 10 | ≤ 100 |
| CCCc1cc(C(=O)N[C@@H](CC(=O)NO)Cc2ccccc2)nn1Cc1ccc(-c2ccccc2S(=O)(=O)NC(C)=O)cc1 [Example 6-18, 1-(2′-Acetylsulfamoylbiphenyl-4-ylmethyl)-5-propyl-1H-pyrazole-3-carboxylic acid ((R)-1-benzyl-2-hydroxycarbamoylethyl)amide] | ≤ 10 | ≤ 100 |
| CCOc1cc(C(=O)N[C@@H](CC(=O)O)Cc2ccccc2)nn1Cc1ccc(-c2ccccc2-c2nnn[nH]2)cc1F [Example 3-31, (R)-3-({5-Ethoxy-1-[3-fluoro-2′-(1H-tetrazol-5-yl)biphenyl-4-ylmethyl]-1H-pyrazole-3-carbonyl}amino)-4-phenylbutyric acid] | ≤ 100 | ≤ 10000 |
| CCCc1cc(C(=O)N[C@@H](Cc2ccccc2)CN(O)C=O)nn1Cc1ccc(-c2ccccc2S(=O)(=O)NC(C)=O)cc1 [Example 6-22, 1-(2′-Acetylsulfamoylbiphenyl-4-ylmethyl)-5-propyl-1H-pyrazole-3-carboxylic acid [(S)-1-benzyl-2-(formylhydroxyamino)ethyl]amide] | ≤ 10 | ≤ 100 |
| CCOc1cc(C(=O)N[C@H](Cc2ccccc2)[C@@H](O)C(=O)O)nn1Cc1ccc(-c2ccccc2S(=O)(=O)NC(C)=O)cc1 [Example 6-3, (2R,3R)-3-{[1-(2′-Acetylsulfamoylbiphenyl-4-ylmethyl)-5-ethoxy-1H-pyrazole-3-carbonyl]amino}-2-hydroxy-4-phenyl-butyric acid] | ≤ 100 | ≤ 1000 |
| CCCc1cc(C(=O)N[C@H](Cc2ccccc2)[C@@H](O)C(=O)O)nn1Cc1ccc(-c2ccccc2-c2nnn[nH]2)cc1F [Example 3-23, (2R,3R)-3-(1-((3-fluoro-2′-(1H-tetrazol-5-yl)biphenyl-4-yl)methyl)-5-propyl-1H-pyrazole-3-carboxamido)-2-hydroxy-4-phenylbutanoic acid] | ≤ 10 | ≤ 100 |
| CCCc1cc(C(=O)N[C@@H](CS)Cc2ccccc2)nn1Cc1ccc(-c2ccccc2S(=O)(=O)NC(C)=O)c(F)c1 [Example 6-6, 1-(2′-Acetylsulfamoyl-2-fluorobiphenyl-4-ylmethyl)-5-propyl-1H-pyrazole-3-carboxylic acid ((R)-1-benzyl-2-mercaptoethyl)amide] | ≤ 10 | ≤ 100 |
| CCCc1cc(C(=O)N[C@H](Cc2ccccc2)[C@@H](O)C(=O)O)nn1Cc1ccc(-c2ccccc2-c2nnn[nH]2)c(F)c1 [Example 3-10, (2R,3R)-3-(1-((2-Fluoro-2′-(1H-tetrazol-5-yl)biphenyl-4-yl)methyl)-5-propyl-1H-pyrazole-3-carboxamido)-2-hydroxy-4-phenylbutanoic acid] | ≤ 10 | ≤ 1000 |
| CCOc1cc(C(=O)N[C@@H](CC(=O)O)Cc2ccccc2)nn1Cc1ccc(-c2ccccc2S(=O)(=O)NC(C)=O)cc1F [Example 6-24, (R)-3-{[1-(2′-Acetylsulfamoyl-3-fluorobiphenyl-4-ylmethyl)-5-ethoxy-1H-pyrazole-3-carbonyl]amino}-4-phenylbutyric acid] | ≤ 10 | ≤ 10000 |

Next, values leading:

| Ki (human AT1 receptor) [nM] | IC50 (NEP enzyme) [nM] | Compound |
| --- | --- | --- |
| ≤ 10 | ≤ 1000 | CCCc1cc(C(=O)N[C@H](Cc2ccccc2)[C@@H](O)C(=O)O)nn1Cc1ccc(-c2ccccc2S(=O)(=O)NC(=O)NCC)cc1 [Example 7-1, (2R,3R)-3-(1-((2′(N-(ethylcarbamoyl)sulfamoyl)biphenyl-4-yl)methyl)-5-propyl-1H-pyrazole-3-carboxamido)-2-hydroxy-4-phenylbutanoic acid] |
| ≤ 10 | ≤ 1000 | CCCc1cc(C(=O)N[C@@H](CC(=O)O)Cc2ccco2)nn1Cc1ccc(-c2ccccc2-c2nnn[nH]2)nc1 [Example 14-11, (R)-4-Furan-2-yl-3-[(5-propyl-1-{6-[2-(1H-tetrazol-5-yl)phenyl]pyridin-3-ylmethyl}-1H-pyrazole-3-carbonyl)amino]butyric acid] |
| ≤ 10 | ≤ 100 | CCCc1cc(C(=O)N[C@@H](CS)Cc2ccccc2)nn1Cc1ccc(-c2ccccc2-c2nnn[nH]2)nc1 [Example 14-2, 5-Propyl-1-{6-[2-(1H-tetrazol-5-yl)phenyl]pyridin-3-ylmethyl}-1H-pyrazole-3-carboxylic acid ((R)-1-benzyl-2-mercaptoethyl)amide] |
| ≤ 10 | ≤ 100 | CCCc1cc(C(=O)N[C@H](Cc2ccccc2)[C@@H](O)C(=O)O)nn1Cc1ccc(-c2ccccc2S(=O)(=O)NC(=O)CCOC)cc1 [Example 7-17, (2R,3R)-2-Hydroxy-3-({1-[2′-(3-methoxy-propionylsulfamoyl)biphenyl-4-ylmethyl]-5-propyl-1H-pyrazole-3-carbonyl}amino)-4-phenylbutyric acid] |
| ≤ 100 | ≤ 100 | CCCc1cc(C(=O)N[C@H](Cc2ccccc2)[C@@H](O)C(=O)O)nn1Cc1ccc(-c2ccccc2S(=O)(=O)NC(=O)N2CCOCC2)cc1 [Example 7-22, (2R,3R)-2-Hydroxy-3-[(1-{2′-[(morpholine-4-carbonyl)sulfamoyl]biphenyl-4-ylmethyl}-5-propyl-1H-pyrazole-3-carbonyl)amino]-4-phenylbutyric acid] |
| ≤ 10 | ≤ 100 | CCCc1cc(C(=O)N[C@H](Cc2ccccc2)[C@@H](O)C(=O)O)nn1Cc1ccc(-c2ccccc2S(=O)(=O)NC(=O)CC)cc1 [Example 7-10, (2R,3R)-2-Hydroxy-4-phenyl-3-{[1-(2′-propionylsulfamoylbiphenyl-4-ylmethyl)-5-propyl-1H-pyrazole-3-carbonyl]amino}butyric acid] |
| ≤ 10 | ≤ 100 | CCCc1cc(C(=O)N[C@H](Cc2ccccc2)[C@@H](O)C(=O)O)nn1Cc1ccc(-c2ccccc2-c2nnn[nH]2)nc1 [Example 14-1, (2R,3R)-2-Hydroxy-4-phenyl-3-[(5-propyl-1-{6-[2-(1H-tetrazol-5-yl)-phenyl]pyridin-3-ylmethyl}-1H-pyrazole-3-carbonyl)amino]butyric acid] |
| ≤ 100 | ≤ 1000 | CCCc1cc(C(=O)N[C@@H](CC(=O)O)Cc2ccccc2Cl)nn1Cc1ccc(-c2ccccc2S(=O)(=O)NC(C)=O)cn1 [Example 15-4, (R)-3-({1-[5-(2-Acetylsulfamoylphenyl)pyridin-2-ylmethyl]-5-propyl-1H-pyrazole-3-carbonyl}amino)-4-(2-chlorophenyl)butyric acid] |
| ≤ 10 | ≤ 100 | CCCc1cc(C(=O)N[C@H](Cc2ccccc2)[C@@H](O)C(=O)O)nn1Cc1ccc(-c2ccccc2S(=O)(=O)NC(=O)C2CC2)cc1 [Example 7-2, (2R,3R)-3-({1-[2′-(Cyclopropanecarbonylsulfamoyl)biphenyl-4-ylmethyl]-5-propyl-1H-pyrazole-3-carbonyl}amino)-2-hydroxy-4-phenylbutyric acid] |
| ≤ 10 | ≤ 100 | CCCc1cc(C(=O)N[C@@H](CS)Cc2ccccc2)nn1Cc1ccc(-c2ccccc2-c2nc(=O)o[nH]2)cc1 [Example 16-1, 1-[2′-(5-Oxo-2,5-dihydro-[1,2,4]oxadiazol-3-yl)biphenyl-4-ylmethyl]-5-propyl-1H-pyrazole-3-carboxylic acid ((R)-1-benzyl-2-mercaptoethyl)amide] |
| ≤ 10 | ≤ 1000 | CCCc1cc(C(=O)N[C@@H](CC(=O)O)Cc2ccccc2Cl)nn1Cc1cnc(-c2ccccc2S(=O)(=O)NC(C)=O)cn1 [Example 17-6, (R)-3-({1-[5-(2-Acetylsulfamoyl-phenyl)-pyrazin-2-ylmethyl]-5-propyl-1H-pyrazole-3-carbonyl}amino)-4-(2-chloro-phenyl)butyric acid] |
| ≤ 10 | ≤ 100 | CCCc1cc(C(=O)N[C@H](Cc2ccccc2)[C@@H](O)C(=O)O)nn1Cc1ccc(-c2ccccc2S(=O)(=O)NC(=O)N(C)C)cc1 [Example 7-20, (2R,3R)-3-(1-((2′-(N-(dimethylcarbamoyl)sulfamoyl)biphenyl-4-yl)methyl)-5-propyl-1H-pyrazole-3-carboxamido)-2-hydroxy-4-phenylbutanoic acid] |
